Results taken from patent US20220288001A1, “CREATINE FOR IMMUNOTHERAPY” (The Regents of the University of California, priority 2019, published 2022).

Tested on: tumor-infiltrating CD8 T cells
Test: Flow cytometry phenotype of tumor-infiltrating CD8 T cells in B16-OVA model
Assay type: in vivo, mouse
Settings: B16-OVA tumors collected day 17; creatine supplementation
Text: Fluorochrome-conjugated monoclonal antibodies specific for mouse CD45.2 (cat #109820; clone 104), TCRβ (cat #109220; clone H57-597), CD4 (cat #100531; clone RM4-5), IFN-γ (cat #505806; clone XMG1.2), Granzyme B (cat #372208; clone QA16A02). TCR Vα2 (cat #127809; clone B20.1), CD69 (cat #104508; clone H1.2F3), CD25 (cat #102006; clone PC61), CD8 (cat #100732: clone 53-6.7), CD44 (cat #103030; clone IM7), LAG-3 (CD223) (cat #125207; clone C9B7W), and Tim-3 (CD366) (cat #119705; clone RMT3-23) were purchased from BioLegend. […] Stained cells were analyzed using a MACSQuant Analyzer 10 Flow Cytometer (Miltenyi Biotee). […] To assess gene expression, CD45^+ immune cells were sorted from TIIs using flow cytometry then analyzed for CrT mRNA expression using qPCR. To assess T cell activation status, TIIs were analyzed for surface activation marker (CD25 and PD-1) expression using flow cytometry. […] TIIs were analyzed for intracellular Granzyme B expression using flow cytometry. To assess T cell cytokine production, Tis were stimulated with PMA (50 ng/ml)+Ionomycine (500 ng/ml) in the presence of GolgiStop (4 μl per 6 ml culture) for 4 hours, then analyzed for intracellular cytokine (IL-2 and IFN-γ) production using flow cytometry. […]

For `CN(CC(=O)O)C(=N)N` [creatine], which ““exhaustion-prone” phenotype cells (PD-1hiCD62Llo) among tumor-infiltrating CD8 T cells” value is on record?
The value was “significant reduction”.
